# Source: PMC3591457, “Biodistribution and Elimination Study of Fluorine-18 Labeled N^ε-Carboxymethyl-Lysine following Intragastric and Intravenous Administration” (PLoS ONE, 2013)
# “And” between values parts separate entries of the source, which are not always exact repeats. Identical values can stand only once.
# Columns and labels:
# RAW264.7 cells = experiment: Cell uptake of ^18F-CML and native CML in RAW264.7 cells; assay type: cell-based; conditions: n=3, P<0.01, blocking with non-radioactive CML
# Protocol: To compare the different bioactivities of CML and ^18F-CML, two cell lines were evaluated for their capacity to take up native CML and the fluorobenzoylated derivative ^18F-CML. RAW264.7 macrophages and HepG2 liver cells were cultured in DMEM/LOWGLUCOSE, supplemented with 10% fetal bovine serum (FBS), 4.0 mmol/L L-glutamine, 110 mg/L sodium pyruvate, 100 U/mL penicillin, and 100 mg/L streptomycin at 37°C and 5% CO2.
# For ^18F-CML cell uptake studies, RAW264.7 cells and HepG2 cells were seeded into 24-well plates at a density of 4×10^5 cells per well. Radio-tracer ^18F-CML (0.5 µCi/well, 3 µmol/mL) was incubated in a 37°C water bath for 15, 30, 60, and 120 min. At each time point the cells were washed 3 times with phosphate-buffered saline (PBS). The supernatant, washing-up liquid (unbound activity) and the pellet (cell-bound activity) were transferred to new tubes. Triplicates of the counting tubes containing supernatant and cell pellet were counted individually using a gamma counter for 1 min. For the blocking experiment, the uptake was carried out in the presence of the non-radioactive CML(10 µmol/mL) and processed similarly as described above. The uptake (%) of radio-tracer into the cell was determined using a gamma counter according to the following equation: [drawing 1]
# For CML cell uptake ratio studies, unaltered CML (10 µmol/mL) was added to RAW264.7 and HepG2 cell pellets individually. The total proteins of each cell line were initially extracted from the lysates of 4×10^5 cells. […] The supernatants were purified and detected usingby the method described by Drusch et al., which uses an RP-HPLC method with an ortho-phthaldialdehyde (OPA)-derivatisation and fluorescence detection suited for automation. The HPLC analysis method used a 250 mm×4.6 mm C18 column (GROM-SIL 100 ODS-0 AB, Herrenberg, Germany) and detected the fluorescence excitation at 340 nm and emission at 455 nm. The peak identification of CML was confirmed by the retention time and standard addition and was quantified using an external standard. The amount of CML was calculated and expressed as a percentage.
# [1] = ^18F-CML in vivo stability in mice (radio-HPLC of plasma and urine); parameters: species or system ICR mice
# Protocol: The in vivo stability of the ^18F-CML in mice was determined using arterial blood and urine samples. Male ICR mice (n = 3) were anaesthetised with 2% vaporized isoflurane and injected with a dose of approximately 3.7 MBq of ^18F-CML in 250 µL of normal saline via the tail vein. […] Blood samples were removed immediately and centrifuged at 12,000 rpm for 2 min at 4°C to separate the plasma. The urinary bladder was carefully excised, and the urine was collected from the bladder. The plasma (30 µL) and an aliquot of the urine sample (20 µL) was injected into an HPLC column to analyze the in vivo stability of ^18F-CML in the mice.
# The HPLC analysis method was based on using trichloroacetic acid to precipitation plasma proteins, which were subsequently separated by reversed-phase column liquid chromatography using a 150 mm×4.6 mm C18 column with a mobile phase of […] acetonitrile and pure water (55%/45%) and detected based on UV absorbance at 254 nm. Radioactivity signal was detected by a radiochromatography detector (PTW, Freiburg, Germany). The ratio of unchanged ^18F-CML to total radioactivity on the HPLC chromatogram was calculated and expressed as a percentage.
# [2] = ^18F-CML in vitro stability (RCP by paper chromatography at room temperature); assay type: physicochemical; conditions: 6 h at room temperature (26±2°C)
# Protocol: The in vitro stability of ^18F-CML was studied by storing the freshly prepared complex at room temperature (26±2°C) for a period of 6 h. The RCP was evaluated every 0.5 h using paper chromatography to determine its in vitro stability.
# [3] = Biodistribution after intravenous administration; assay type: in vivo, ICR mice; conditions: for Uptake in bladder, percentage of injected dose per whole tissue / Uptake in brain, percentage of injected dose per whole tissue / Uptake in heart, percentage of injected dose per whole tissue / Uptake in intestines, percentage of injected dose per whole tissue / Uptake in kidneys, percentage of injected dose per whole tissue / Uptake in liver, percentage of injected dose per whole tissue / Uptake in lungs, percentage of injected dose per whole tissue / Uptake in muscles, percentage of injected dose per whole tissue / Uptake in pancreas, percentage of injected dose per whole tissue / Uptake in stomach, percentage of injected dose per whole tissue: intravenous administration, n=3, mean ± SD
# Protocol: The biodistribution of ^18F-CML was studied in eighteen young male ICR mice with a weight range of 18–20 g. Nine mice were used for intravenous administration and the other nine mice were used for intragastric administration.
# For intravenous administration, ^18F-CML was injected into a lateral tail vein of the animals under light ether anesthesia. The injection volume (2–3 MBq; radiochemical purity 96%) was 0.1 mL. For intragastric administration, 1.5 MBq of ^18F-labeled CML was given via gastrointestinal tract tract.
# The mice were sacrificed at 5, 60, and 120 min after administration of ^18F-CML (three mice at each time point). The animals were sacrificed by heart puncture under ether anaesthesia. The tissues and organs of interest were isolated and counted in a well-type γ counter. Additionally, 200 µL of blood was taken from the carotid artery. The distributions of ^18F-CML in different tissues and organs were calculated and expressed as the percent uptake of the injection dose per whole tissue (% ID).
# [4] = intravenous, 60 min post-injection
compound,measurement,setting,value
O=C(O)CNCCCCC(NC(=O)c1ccc([18F])cc1)C(=O)O (stereo not shown) [^18F-CML],Uptake of radioactivity in untreated cells relative to unlabelled CML-treated (blocked) cells,RAW264.7 cells,1.8 fold
same,Metabolic products in the urine (radio HPLC),[1]; 40 min after injection,No metabolic products were observed
same,Radioactivity in an unchanged form in the plasma and urine (in vivo stability),"[1]; 60 min after tail vein injection, RP-HPLC",more than 98%
same,Radiochemical purity (RCP) retained on storage (in vitro stability),[2],98.2±0.3%
same,"Radioactivity in stomach, lungs, liver and intestines taken together, of the total injected dose",[3]; intravenous,less than 10%
same,"Uptake in bladder, percentage of injected dose per whole tissue",[3]; 5 min,26.50±1.70 %ID
same,"Uptake in brain, percentage of injected dose per whole tissue",[3]; 5 min,3.04±0.02 %ID
same,"Uptake in heart, percentage of injected dose per whole tissue",[3]; 5 min,11.15±0.05 %ID
same,"Uptake in intestines, percentage of injected dose per whole tissue",[3]; 5 min,1.02±0.05 %ID
same,"Uptake in kidneys, percentage of injected dose per whole tissue",[3]; 5 min,29.30 %ID and 29.30±2.05 %ID
same,"Uptake in liver, percentage of injected dose per whole tissue",[3]; 5 min,17.28±2.04 %ID
same,"Uptake in lungs, percentage of injected dose per whole tissue",[3]; 5 min,1.65±0.05 %ID
same,"Uptake in muscles, percentage of injected dose per whole tissue",[3]; 5 min,8.02±0.82 %ID
same,"Uptake in pancreas, percentage of injected dose per whole tissue",[3]; 5 min,0.9±0.04 %ID
same,"Uptake in stomach, percentage of injected dose per whole tissue",[3]; 5 min,0.35±0.02 %ID
same,"Uptake in bladder, percentage of injected dose per whole tissue",[3]; 60 min,41.28±3.50 %ID
same,"Uptake in brain, percentage of injected dose per whole tissue",[3]; 60 min,0.38±0.01 %ID
same,"Uptake in heart, percentage of injected dose per whole tissue",[3]; 60 min,5.05±0.01 %ID
same,"Uptake in intestines, percentage of injected dose per whole tissue",[3]; 60 min,2.35±0.01 %ID
same,"Uptake in kidneys, percentage of injected dose per whole tissue",[3]; 60 min,35.6 %ID and 35.6±4.06 %ID
same,"Uptake in liver, percentage of injected dose per whole tissue",[3]; 60 min,9.72±1.62 %ID
same,"Uptake in lungs, percentage of injected dose per whole tissue",[3]; 60 min,1.12±0.02 %ID
same,"Uptake in muscles, percentage of injected dose per whole tissue",[3]; 60 min,5.17±1.12 %ID
same,"Uptake in pancreas, percentage of injected dose per whole tissue",[3]; 60 min,0.01±0.0 %ID
same,"Uptake in stomach, percentage of injected dose per whole tissue",[3]; 60 min,0.02±0.01 %ID
same,"Uptake in bladder, percentage of injected dose per whole tissue",[3]; 120 min,72.30±5.20 %ID
same,"Uptake in brain, percentage of injected dose per whole tissue",[3]; 120 min,0.07±0.00 %ID
same,"Uptake in heart, percentage of injected dose per whole tissue",[3]; 120 min,1.03±0.00 %ID
same,"Uptake in intestines, percentage of injected dose per whole tissue",[3]; 120 min,0.5±0.00 %ID
same,"Uptake in kidneys, percentage of injected dose per whole tissue",[3]; 120 min,18.1 %ID and 18.1±2.65 %ID
same,"Uptake in liver, percentage of injected dose per whole tissue",[3]; 120 min,3.28±0.05 %ID
same,"Uptake in lungs, percentage of injected dose per whole tissue",[3]; 120 min,0.25±0.00 %ID
same,"Uptake in muscles, percentage of injected dose per whole tissue",[3]; 120 min,3.02±0.82 %ID
same,"Uptake in pancreas, percentage of injected dose per whole tissue",[3]; 120 min,0.00±0.02 %ID
same,"Uptake in stomach, percentage of injected dose per whole tissue",[3]; 120 min,0.01±0.00 %ID
same,"Injected dose found in the urine and stomach, lungs, liver and intestines",[3]; [4],less than 50%
same,Remaining radioactivity located in the circulating blood,[3]; [4],approximately 8%
